{
  "source": "paper PMC6723440",
  "about": "(Toxins, 2019)",
  "key": {"[1]": {"conditions": "human; for percentage of metabolized parent toxin in phase I reactions: microsomes, 1 h"}, "[2]": {"conditions": "human, pH 7.4"}, "[3]": {"conditions": "human; cited from earlier work"}, "[4]": {"conditions": "in vivo; cited from earlier work"}, "[5]": {"conditions": "human, pH 7.4", "remark": "listed apart in the source"}},
  "note": "Like-named read-outs stand apart in the source and are kept apart here.",
  "data": [
    {"compound": "CC(=O)O[C@@H]1C[C@]2(C)[C@@]3(CO)[C@H](O)C(=O)C(C)=C[C@H]3O[C@H]1[C@@]21CO1", "note": "[3-AcDON, 3-acetyldeoxynivalenol]", "values": [
      {"measurement": "converted into DON", "setting": "[1]; pH 7.4", "value": 50, "unit": "%"},
      {"measurement": "LC-MS Library: metabolites generated", "setting": "[2]", "value": "Phase I metabolites: DON Glucuronides: Gluc-3-AcDON"},
      {"measurement": "metabolized to DON", "setting": "[3]", "value": 78, "unit": "%"}
    ]},
    {"compound": "CC(=O)OC[C@]12[C@H](O)C(=O)C(C)=C[C@H]1O[C@@H]1[C@H](O)C[C@@]2(C)[C@]12CO2", "note": "[15-AcDON, 15-acetyldeoxynivalenol]", "values": [
      {"measurement": "converted into DON", "setting": "[1]; pH 7.4", "value": 1, "unit": "%"},
      {"measurement": "LC-MS Library: metabolites generated", "setting": "[2]", "value": "Phase I metabolites: DON Glucuronides: Gluc-15-AcDON"}
    ]},
    {"compound": "CC1=C[C@H]2O[C@@H]3[C@H](O)C[C@](C)([C@@]2(CO)[C@H](O)C1=O)[C@]31CO1", "note": "[DON, deoxynivalenol]", "values": [
      {"measurement": "predominant species in urine", "setting": "[4]", "value": 27, "unit": "%"},
      {"measurement": "total urinary DON present as free DON", "setting": "[4]", "value": 27.4, "unit": "%"},
      {"measurement": "total urinary deoxynivalenol (DON) composed of its glucuronides (15-Gluc-DON and 3-Gluc-DON)", "setting": "[4]", "value": "approximately 72.6%"},
      {"measurement": "converted into DNIV", "setting": "[1]; pH 7.4", "value": "less than 1%"},
      {"measurement": "LC-MS Library: metabolites generated", "setting": "[2]", "value": "Phase I metabolites: NIV, DOM-1 and its two isomers, Glucuronides: 15-Gluc-DON, 3-Gluc-DON"}
    ]},
    {"compound": "CC(=O)OC[C@]12C[C@H](OC(=O)CC(C)C)C(C)=C[C@H]1O[C@@H]1[C@H](O)[C@@H](O)[C@@]2(C)[C@]12CO2", "note": "[HT-2, HT-2 toxin]", "values": [
      {"measurement": "LC-MS Library: metabolites generated", "setting": "[2]", "value": "Phase I metabolites: 4-de-Ac-NEO and its isomer, 3′-OH-HT-2, 4′-OH-HT-2 and its isomer Three OH-T-2 metabolites at 7 or 10 or 16-OH-HT-2 Two unknown metabolites Glucuronides: Gluc-3-HT-2"}
    ]},
    {"compound": "CC1=C[C@H]2O[C@@H]3[C@H](O)[C@@H](O)[C@](C)([C@@]2(CO)[C@H](O)C1=O)[C@]31CO1", "note": "[NIV, nivalenol]", "values": [
      {"measurement": "converted into DNIV", "setting": "[1]; pH 7.4", "value": 5, "unit": "%"},
      {"measurement": "glucuronidation", "setting": "[5]", "value": "< 1", "unit": "%"}
    ]},
    {"compound": "CC(=O)OCC12CC(OC(=O)CC(C)C)C(C)=CC1OC1C(OC3OC(C(=O)O)C(O)C(O)C3O)C(OC(C)=O)C2(C)C12CO2", "note": "(stereo not drawn) [T-2 glucuronide]", "values": [
      {"measurement": "share of glucuronide form", "setting": "[5]", "value": 8, "unit": "%"}
    ]},
    {"compound": "C[C@H]1CCCC(=O)CCCCCc2cc(O)cc(O)c2C(=O)O1", "note": "[ZAN, zearalanone]", "values": [
      {"measurement": "percentage of metabolized parent toxin in phase I reactions", "setting": "[1]; pH 7.4", "value": 66, "unit": "%"},
      {"measurement": "Number of Metabolites (n): Desaturation oxidation, −(H2) +(O2)", "setting": "[1]; pH 7.4", "value": 2},
      {"measurement": "Number of Metabolites (n): Desaturation, oxidation, −(H2) +(O)", "setting": "[1]; pH 7.4", "value": 1},
      {"measurement": "Number of Metabolites (n): Desaturation, oxidation, −(H4) +(O)", "setting": "[1]; pH 7.4", "value": 0},
      {"measurement": "Number of Metabolites (n): Oxidation +(O)", "setting": "[1]; pH 7.4", "value": "5(23%)"},
      {"measurement": "Number of Metabolites (n): Oxidation, +(O2)", "setting": "[1]; pH 7.4", "value": "6(27%)"},
      {"measurement": "Number of Metabolites (n): Oxidation, −(H4) +(O2)", "setting": "[1]; pH 7.4", "value": 0},
      {"measurement": "share of Oxidation +(O) metabolites in ∑ n", "setting": "[1]; pH 7.4", "value": "5(23%)"},
      {"measurement": "share of Oxidation, +(O2) metabolites in ∑ n", "setting": "[1]; pH 7.4", "value": "6(27%)"},
      {"measurement": "share of Reduction, oxidation, +(H2) +(O) metabolites in ∑ n", "setting": "[1]; pH 7.4", "value": "8(36%)"},
      {"measurement": "∑ n, total number of oxidized metabolites", "setting": "[1]; pH 7.4", "value": 22},
      {"measurement": "Total Number of Glucuronides", "setting": "[5]", "value": 24},
      {"measurement": "converted into glucoronides", "setting": "[5]", "value": 93, "unit": "%"},
      {"measurement": "glucuronides of oxidized metabolites and double glucuronides (minor products)", "setting": "[5]", "value": 19, "unit": "%"},
      {"measurement": "glucuronides of parent toxins at position C-14", "setting": "[5]", "value": 73, "unit": "%"},
      {"measurement": "share of species, Figure 7 pie", "setting": "[5]", "value": 7, "unit": "%"},
      {"measurement": "sum of parent glucuronides", "setting": "[5]", "value": 74, "unit": "%"},
      {"measurement": "LC-MS Library: metabolites generated", "setting": "[2]", "value": "Phase I metabolites: (-(H2) +(O))-ZAN, (+(O))-ZAN, (+(H2)+ (O))-ZAN, (+(O2))-ZAN, (-(H2) +(O2))-ZAN Glucuronides: Gluc-16-ZAN, Gluc-14-ZAN, Gluc-(+O)- ZAN, 2xGluc- ZAN, Gluc-(+(H2)+(O))-ZAN, 2 × Gluc-(+O)-ZAN, 2 × Gluc-(+(H2)+(O))-ZAN"}
    ]},
    {"compound": "C[C@H]1CCCC(=O)CCC/C=C/c2cc(O)cc(O)c2C(=O)O1", "note": "[ZEN, zearalenone]", "values": [
      {"measurement": "percentage of metabolized parent toxin in phase I reactions", "setting": "[1]; pH 7.4", "value": 27, "unit": "%"},
      {"measurement": "Number of Metabolites (n): Desaturation oxidation, −(H2) +(O2)", "setting": "[1]; pH 7.4", "value": 0},
      {"measurement": "Number of Metabolites (n): Desaturation, oxidation, −(H2) +(O)", "setting": "[1]; pH 7.4", "value": 1},
      {"measurement": "Number of Metabolites (n): Desaturation, oxidation, −(H4) +(O)", "setting": "[1]; pH 7.4", "value": 0},
      {"measurement": "Number of Metabolites (n): Oxidation, +(O2)", "setting": "[1]; pH 7.4", "value": 0},
      {"measurement": "Number of Metabolites (n): Oxidation, −(H4) +(O2)", "setting": "[1]; pH 7.4", "value": 0},
      {"measurement": "Number of Metabolites (n): Reduction, oxidation, +(H2) +(O)", "setting": "[1]; pH 7.4", "value": 2},
      {"measurement": "share of Oxidation +(O) metabolites in ∑ n", "setting": "[1]; pH 7.4", "value": "9(75%)"},
      {"measurement": "∑ n, total number of oxidized metabolites", "setting": "[1]; pH 7.4", "value": 12},
      {"measurement": "Total Number of Glucuronides", "setting": "[5]", "value": 10},
      {"measurement": "converted into glucoronides", "setting": "[5]", "value": 99, "unit": "%"},
      {"measurement": "glucuronides of oxidized metabolites and double glucuronides (minor products)", "setting": "[5]", "value": 8, "unit": "%"},
      {"measurement": "glucuronides of parent toxins at position C-14", "setting": "[5]", "value": 86, "unit": "%"},
      {"measurement": "share of species, Figure 7 pie", "setting": "[5]", "value": 1, "unit": "%"},
      {"measurement": "sum of parent glucuronides", "setting": "[5]", "value": 91, "unit": "%"},
      {"measurement": "LC-MS Library: metabolites generated", "setting": "[2]", "value": "Phase I metabolites: (-(H2) +(O))-ZEN, (+(O))-ZEN, (+(H2)+ (O))-ZEN Glucuronides: Gluc-16-ZEN, Gluc-14-ZEN, Gluc-(+O)-ZEN, 2xGluc-ZEN"}
    ]},
    {"compound": "C[C@H]1CCC[C@H](O)CCCCCc2cc(O)cc(O)c2C(=O)O1", "note": "[α-ZAL, 7-α-hydroxy-zearalanol]", "values": [
      {"measurement": "percentage of metabolized parent toxin in phase I reactions", "setting": "[1]", "value": 29, "unit": "%"}
    ]},
    {"compound": "C[C@H]1CCC[C@H](O)CCC/C=C/c2cc(O)cc(O)c2C(=O)O1", "note": "[α-ZOL, 7-α-hydroxy-zearalenol]", "values": [
      {"measurement": "percentage of metabolized parent toxin in phase I reactions", "setting": "[1]", "value": 70, "unit": "%"}
    ]},
    {"compound": "C[C@H]1CCC[C@@H](O)CCCCCc2cc(O)cc(O)c2C(=O)O1", "note": "[β-ZAL, 7-β-hydroxy-zearalanol]", "values": [
      {"measurement": "percentage of metabolized parent toxin in phase I reactions", "setting": "[1]", "value": 23, "unit": "%"}
    ]}
  ]
}
